In ChEMBL document CHEMBL1131932, “Simplification of adenophostin A defines a minimal structure for potent glucopyranoside-based mimics of D-myo-inositol 1,4,5-trisphosphate” (Bioorg Med Chem Lett, 1999) one finds EC50 data, which are given here for two compounds.

The species named for the assay is Rattus norvegicus. Briefly: Effect on [Ca2+] efflux in rat hepatocytes. Particulars: Hepatocyte. It counts as functional.

In the case of `O=P(O)(O)O[C@@H]1[C@H](O)[C@@H](O[C@@H]2COC[C@@H]2OP(=O)(O)O)O[C@@H](CO)[C@H]1OP(=O)(O)O`, the EC50 (usually the midpoint of the concentration-response curve) was 194 nM.
The same measure for `O=P(O)(O)O[C@@H]1[C@H](O)[C@H](O)[C@@H](OP(=O)(O)O)[C@H](OP(=O)(O)O)[C@H]1O` [INS(1,4,5)P3]: 329 nM.
